Results from ChEMBL document CHEMBL1201862, “PubChem BioAssay data set” (2004).
Calls of active or inactive are those of the source.

Experiments:
[1] = biological target: T1, 1-phosphatidylinositol 4,5-bisphosphate phosphodiesterase gamma-1 (Homo sapiens, UniProt P19174); assay: Counterscreen for inhibitors of phospholipase C isozymes (PLC-B3): Fluorescence-based biochemical high throughput dose response assay to identify inhibitors of phospholipase C isozymes (PLC-gamma1).
T1 sequence (P19174 whole entry): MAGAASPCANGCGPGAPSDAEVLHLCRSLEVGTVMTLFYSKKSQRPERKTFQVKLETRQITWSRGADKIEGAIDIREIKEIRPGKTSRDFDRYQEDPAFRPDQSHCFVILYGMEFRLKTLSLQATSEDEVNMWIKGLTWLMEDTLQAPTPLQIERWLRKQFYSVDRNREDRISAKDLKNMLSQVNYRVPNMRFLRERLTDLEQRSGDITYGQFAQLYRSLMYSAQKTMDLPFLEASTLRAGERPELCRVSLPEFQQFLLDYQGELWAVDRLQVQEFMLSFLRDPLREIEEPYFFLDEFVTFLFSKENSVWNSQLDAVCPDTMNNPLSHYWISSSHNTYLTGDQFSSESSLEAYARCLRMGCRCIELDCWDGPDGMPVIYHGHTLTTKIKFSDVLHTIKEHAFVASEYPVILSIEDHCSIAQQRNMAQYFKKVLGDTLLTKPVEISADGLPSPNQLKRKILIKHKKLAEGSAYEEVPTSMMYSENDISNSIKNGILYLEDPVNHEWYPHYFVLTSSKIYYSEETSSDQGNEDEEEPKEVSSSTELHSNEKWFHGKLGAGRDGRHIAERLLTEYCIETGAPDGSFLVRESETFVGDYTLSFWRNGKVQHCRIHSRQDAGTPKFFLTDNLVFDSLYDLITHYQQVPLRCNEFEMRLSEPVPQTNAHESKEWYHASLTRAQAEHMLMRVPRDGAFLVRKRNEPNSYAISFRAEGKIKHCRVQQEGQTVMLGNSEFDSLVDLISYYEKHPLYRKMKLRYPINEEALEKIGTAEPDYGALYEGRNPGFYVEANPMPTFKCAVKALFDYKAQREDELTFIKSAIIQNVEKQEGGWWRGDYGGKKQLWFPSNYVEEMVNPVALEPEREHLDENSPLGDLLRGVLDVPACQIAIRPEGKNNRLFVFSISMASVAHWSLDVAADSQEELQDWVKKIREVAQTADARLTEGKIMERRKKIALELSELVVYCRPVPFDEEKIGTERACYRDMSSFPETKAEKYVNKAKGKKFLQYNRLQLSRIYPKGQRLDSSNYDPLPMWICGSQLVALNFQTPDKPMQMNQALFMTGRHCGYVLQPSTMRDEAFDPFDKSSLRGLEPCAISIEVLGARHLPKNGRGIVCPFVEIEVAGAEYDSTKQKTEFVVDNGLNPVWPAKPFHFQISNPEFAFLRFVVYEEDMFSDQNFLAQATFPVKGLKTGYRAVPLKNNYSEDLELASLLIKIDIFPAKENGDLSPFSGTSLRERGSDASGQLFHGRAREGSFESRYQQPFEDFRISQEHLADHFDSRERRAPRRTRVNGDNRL

[2] = biological target: T2, 1-phosphatidylinositol 4,5-bisphosphate phosphodiesterase beta-3 (Homo sapiens, UniProt Q01970); assay: Fluorescence-based biochemical high throughput dose response assay to identify inhibitors of phospholipase C isozymes (PLC-B3).
T2 sequence (Q01970 whole entry): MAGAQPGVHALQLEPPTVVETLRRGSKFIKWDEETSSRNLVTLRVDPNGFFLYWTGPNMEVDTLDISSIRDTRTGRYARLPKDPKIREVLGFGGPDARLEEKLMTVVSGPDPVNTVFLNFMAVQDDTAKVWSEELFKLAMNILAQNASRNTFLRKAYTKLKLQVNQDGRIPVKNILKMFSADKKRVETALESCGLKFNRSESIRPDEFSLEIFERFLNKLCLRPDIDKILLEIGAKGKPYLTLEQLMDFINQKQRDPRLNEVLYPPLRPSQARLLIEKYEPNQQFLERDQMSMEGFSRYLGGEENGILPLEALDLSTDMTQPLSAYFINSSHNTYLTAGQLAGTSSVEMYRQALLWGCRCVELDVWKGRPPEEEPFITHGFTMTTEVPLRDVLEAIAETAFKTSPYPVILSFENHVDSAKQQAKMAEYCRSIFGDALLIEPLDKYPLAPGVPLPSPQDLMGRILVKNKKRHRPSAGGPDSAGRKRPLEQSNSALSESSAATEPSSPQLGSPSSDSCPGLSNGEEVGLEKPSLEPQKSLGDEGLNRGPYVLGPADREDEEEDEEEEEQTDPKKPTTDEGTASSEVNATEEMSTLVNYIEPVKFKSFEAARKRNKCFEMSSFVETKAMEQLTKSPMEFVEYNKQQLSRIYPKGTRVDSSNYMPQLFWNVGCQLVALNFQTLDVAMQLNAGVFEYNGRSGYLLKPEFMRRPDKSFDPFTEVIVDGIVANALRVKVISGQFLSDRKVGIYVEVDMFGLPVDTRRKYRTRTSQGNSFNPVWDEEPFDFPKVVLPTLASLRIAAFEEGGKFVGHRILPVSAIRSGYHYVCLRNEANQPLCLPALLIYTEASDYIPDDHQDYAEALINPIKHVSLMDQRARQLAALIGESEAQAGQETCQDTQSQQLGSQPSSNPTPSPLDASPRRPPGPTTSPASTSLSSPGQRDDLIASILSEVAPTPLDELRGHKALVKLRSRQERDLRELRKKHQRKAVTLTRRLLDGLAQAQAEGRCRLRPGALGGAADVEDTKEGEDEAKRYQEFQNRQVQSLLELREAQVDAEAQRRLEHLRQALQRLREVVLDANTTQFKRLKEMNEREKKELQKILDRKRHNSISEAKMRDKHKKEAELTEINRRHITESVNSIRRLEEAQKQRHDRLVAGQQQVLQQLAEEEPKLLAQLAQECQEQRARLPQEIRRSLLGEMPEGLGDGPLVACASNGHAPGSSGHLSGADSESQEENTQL

[3] = biological target: Peroxisome proliferator-activated receptor gamma/Nuclear receptor coactivator 2 (Homo sapiens, UniProt P37231); assay: (§1) TR-FRET dose response biochemical High Throughput Screening assay for agonists of the steroid receptor coactivator 2 (SRC-2) recruitment by the peroxisome proliferator-activated receptor gamma (PPAR gamma): non-selective agonists. [Related pubchem assays: 1297, 1032 ]; format: functional
[4] = biological target: Peroxisome proliferator-activated receptor gamma/Nuclear receptor coactivator 1 (Homo sapiens, UniProt P37231); assay: as §1, with “1 (SRC-1)” for “2 (SRC-2)”, “assays (depositor defined):AID1300, AID1808, AID504735, AID631]” for “assays: 1297, 1032 ]”; format: protein assay
Chain of Peroxisome proliferator-activated receptor gamma/Nuclear receptor coactivator 1 (P37231 whole entry): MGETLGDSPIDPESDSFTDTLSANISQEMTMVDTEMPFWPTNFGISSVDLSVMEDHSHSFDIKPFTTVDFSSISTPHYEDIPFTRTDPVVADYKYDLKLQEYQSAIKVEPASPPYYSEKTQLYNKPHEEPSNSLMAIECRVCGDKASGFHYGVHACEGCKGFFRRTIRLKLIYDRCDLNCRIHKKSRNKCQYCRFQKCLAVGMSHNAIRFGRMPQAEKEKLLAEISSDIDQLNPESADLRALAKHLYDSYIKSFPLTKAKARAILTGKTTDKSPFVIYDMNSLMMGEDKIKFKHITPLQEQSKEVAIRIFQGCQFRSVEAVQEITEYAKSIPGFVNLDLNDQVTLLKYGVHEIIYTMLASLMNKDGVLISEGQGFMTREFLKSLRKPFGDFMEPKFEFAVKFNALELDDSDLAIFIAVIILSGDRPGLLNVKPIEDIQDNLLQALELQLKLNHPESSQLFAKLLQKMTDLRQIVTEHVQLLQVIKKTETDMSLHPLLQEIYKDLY
Chain of Peroxisome proliferator-activated receptor gamma/Nuclear receptor coactivator 1 (Q15788 whole entry, further chain): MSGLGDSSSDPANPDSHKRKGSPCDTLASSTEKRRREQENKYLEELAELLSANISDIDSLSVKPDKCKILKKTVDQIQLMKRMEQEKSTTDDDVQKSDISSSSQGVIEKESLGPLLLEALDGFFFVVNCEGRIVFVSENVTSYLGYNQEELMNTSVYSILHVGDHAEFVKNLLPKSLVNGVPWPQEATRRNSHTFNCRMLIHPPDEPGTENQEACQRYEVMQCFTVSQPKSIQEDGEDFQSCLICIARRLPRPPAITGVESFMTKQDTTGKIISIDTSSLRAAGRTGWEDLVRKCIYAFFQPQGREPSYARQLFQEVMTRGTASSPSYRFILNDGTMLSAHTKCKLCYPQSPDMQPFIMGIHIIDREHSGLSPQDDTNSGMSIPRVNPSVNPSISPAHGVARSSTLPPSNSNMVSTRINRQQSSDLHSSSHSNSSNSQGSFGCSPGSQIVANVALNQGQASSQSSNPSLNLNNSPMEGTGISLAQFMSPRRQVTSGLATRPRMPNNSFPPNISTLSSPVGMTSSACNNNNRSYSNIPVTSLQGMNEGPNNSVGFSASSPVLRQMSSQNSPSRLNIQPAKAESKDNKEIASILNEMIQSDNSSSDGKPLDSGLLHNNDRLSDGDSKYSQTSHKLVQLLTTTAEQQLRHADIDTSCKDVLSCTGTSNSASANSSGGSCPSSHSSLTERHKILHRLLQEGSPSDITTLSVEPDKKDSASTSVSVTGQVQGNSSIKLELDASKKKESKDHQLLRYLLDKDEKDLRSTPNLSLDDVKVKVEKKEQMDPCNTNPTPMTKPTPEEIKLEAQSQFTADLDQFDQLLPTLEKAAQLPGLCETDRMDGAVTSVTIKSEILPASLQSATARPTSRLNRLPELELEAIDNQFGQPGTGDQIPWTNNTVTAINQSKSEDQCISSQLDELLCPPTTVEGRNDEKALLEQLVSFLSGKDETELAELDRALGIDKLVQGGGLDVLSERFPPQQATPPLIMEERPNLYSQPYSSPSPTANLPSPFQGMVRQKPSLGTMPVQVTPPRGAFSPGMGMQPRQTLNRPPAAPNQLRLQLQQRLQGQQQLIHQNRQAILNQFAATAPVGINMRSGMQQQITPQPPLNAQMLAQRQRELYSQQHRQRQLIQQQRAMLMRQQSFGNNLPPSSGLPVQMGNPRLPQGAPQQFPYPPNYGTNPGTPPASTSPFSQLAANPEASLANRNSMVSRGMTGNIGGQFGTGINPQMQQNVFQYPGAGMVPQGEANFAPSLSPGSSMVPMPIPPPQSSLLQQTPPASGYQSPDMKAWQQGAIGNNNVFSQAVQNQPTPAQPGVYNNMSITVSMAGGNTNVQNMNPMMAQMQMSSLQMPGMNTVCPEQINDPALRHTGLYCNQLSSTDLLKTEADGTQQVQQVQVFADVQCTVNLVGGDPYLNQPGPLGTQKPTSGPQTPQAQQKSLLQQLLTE

[5] = biological target: Peroxisome proliferator-activated receptor gamma/Nuclear receptor coactivator 3 (Homo sapiens, UniProt P37231); assay: as §1, with “3 (SRC-3)” for “2 (SRC-2)”, “1301 (Confirmation screen.), 1048 (Primary screen.)]” for “1297, 1032 ]”; format: functional
Chain of Peroxisome proliferator-activated receptor gamma/Nuclear receptor coactivator 3 (P37231 whole entry): as the sequence (P37231 whole entry) above
Chain of Peroxisome proliferator-activated receptor gamma/Nuclear receptor coactivator 3 (Q9Y6Q9 whole entry, further chain): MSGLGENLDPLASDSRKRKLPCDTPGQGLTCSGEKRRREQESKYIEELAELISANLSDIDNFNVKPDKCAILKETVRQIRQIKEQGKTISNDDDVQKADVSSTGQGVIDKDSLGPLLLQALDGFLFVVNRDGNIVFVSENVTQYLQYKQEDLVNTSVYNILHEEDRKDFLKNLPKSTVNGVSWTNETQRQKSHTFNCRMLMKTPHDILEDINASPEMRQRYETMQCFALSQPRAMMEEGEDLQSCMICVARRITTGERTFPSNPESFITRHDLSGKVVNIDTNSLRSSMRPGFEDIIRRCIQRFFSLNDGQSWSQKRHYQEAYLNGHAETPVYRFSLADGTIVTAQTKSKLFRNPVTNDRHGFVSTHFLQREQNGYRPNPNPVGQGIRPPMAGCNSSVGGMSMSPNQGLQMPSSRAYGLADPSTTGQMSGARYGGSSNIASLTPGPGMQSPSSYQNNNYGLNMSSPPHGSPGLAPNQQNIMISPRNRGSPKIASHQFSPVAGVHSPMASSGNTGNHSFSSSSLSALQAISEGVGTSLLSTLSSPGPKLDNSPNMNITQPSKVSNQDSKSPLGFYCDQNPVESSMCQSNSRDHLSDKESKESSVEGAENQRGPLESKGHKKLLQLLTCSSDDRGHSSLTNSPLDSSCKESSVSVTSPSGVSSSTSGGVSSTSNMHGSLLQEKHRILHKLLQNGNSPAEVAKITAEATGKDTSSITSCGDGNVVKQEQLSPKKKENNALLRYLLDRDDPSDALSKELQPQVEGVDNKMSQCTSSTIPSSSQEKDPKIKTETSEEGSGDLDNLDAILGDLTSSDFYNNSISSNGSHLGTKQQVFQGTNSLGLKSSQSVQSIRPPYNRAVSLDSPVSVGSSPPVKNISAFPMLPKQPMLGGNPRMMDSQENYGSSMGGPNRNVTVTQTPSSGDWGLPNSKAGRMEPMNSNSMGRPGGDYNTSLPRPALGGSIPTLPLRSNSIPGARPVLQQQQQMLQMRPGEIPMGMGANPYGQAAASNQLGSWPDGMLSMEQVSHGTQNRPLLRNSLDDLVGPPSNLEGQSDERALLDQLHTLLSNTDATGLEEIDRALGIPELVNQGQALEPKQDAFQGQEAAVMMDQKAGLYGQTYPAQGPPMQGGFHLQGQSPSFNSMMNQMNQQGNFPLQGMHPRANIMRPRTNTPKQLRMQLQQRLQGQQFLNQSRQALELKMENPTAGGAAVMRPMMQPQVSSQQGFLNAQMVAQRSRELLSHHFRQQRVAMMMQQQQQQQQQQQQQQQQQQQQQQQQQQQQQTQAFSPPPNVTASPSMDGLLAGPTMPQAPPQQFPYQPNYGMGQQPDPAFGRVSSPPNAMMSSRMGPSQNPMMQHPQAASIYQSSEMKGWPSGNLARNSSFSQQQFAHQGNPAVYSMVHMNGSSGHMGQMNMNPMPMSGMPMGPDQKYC

[6] = potency of ADAM10 substrate cleavage blockers – biochemical, QFRET, dose response (AID 743254);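 further: ADAM10 enzyme with the DM2 quenched FRET peptide as substrate; EDANS fluorescence gain as the protease cuts the substrate; inhibitor potency against ADAM10 proteolytic activity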
[7] = biological target: Disintegrin and metalloproteinase domain-containing protein 17 (Homo sapiens, UniProt P78536); assay: inhibition of ADAM17 substrate cleavage – biochemical, quenched FRET substrate, counter-screen for ADAM10 exosite inhibitor project, dose response (AID 743253)
Chain of Disintegrin and metalloproteinase domain-containing protein 17 (P78536 whole entry, the tested form may be a part): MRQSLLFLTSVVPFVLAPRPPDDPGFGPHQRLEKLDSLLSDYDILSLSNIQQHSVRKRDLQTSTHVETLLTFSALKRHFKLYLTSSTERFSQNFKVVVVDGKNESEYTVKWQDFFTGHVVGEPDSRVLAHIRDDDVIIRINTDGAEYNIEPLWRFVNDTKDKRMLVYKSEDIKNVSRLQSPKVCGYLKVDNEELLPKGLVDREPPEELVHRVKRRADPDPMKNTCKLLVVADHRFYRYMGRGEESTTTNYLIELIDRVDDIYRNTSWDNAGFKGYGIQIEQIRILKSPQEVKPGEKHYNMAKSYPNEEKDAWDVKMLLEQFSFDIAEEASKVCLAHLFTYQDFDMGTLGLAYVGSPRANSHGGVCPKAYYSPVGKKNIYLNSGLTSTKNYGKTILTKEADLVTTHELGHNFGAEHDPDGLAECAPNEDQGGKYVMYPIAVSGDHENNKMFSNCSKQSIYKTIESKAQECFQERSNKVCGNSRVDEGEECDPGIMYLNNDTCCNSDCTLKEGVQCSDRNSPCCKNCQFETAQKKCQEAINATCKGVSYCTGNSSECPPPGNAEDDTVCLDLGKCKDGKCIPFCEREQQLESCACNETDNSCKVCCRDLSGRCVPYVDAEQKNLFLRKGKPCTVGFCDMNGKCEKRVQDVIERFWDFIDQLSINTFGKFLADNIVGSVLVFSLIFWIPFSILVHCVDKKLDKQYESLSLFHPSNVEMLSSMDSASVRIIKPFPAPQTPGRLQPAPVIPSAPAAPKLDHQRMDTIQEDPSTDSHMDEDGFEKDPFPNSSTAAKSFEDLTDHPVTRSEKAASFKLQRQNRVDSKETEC

INS1 = assay: INS-1E survival protection against cytokine death – cell-based, luminescence, retest, dose response (AID 449756); format: functional; conditions: Rattus norvegicus;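 further: cell death triggered by IL-1 beta plus TNF-alpha plus IFN-gamma mixture; protective hits raise ATP signal compared with cytokine alone wells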
[8] = biological target: Heat shock protein HSP 90-alpha (Homo sapiens, UniProt P07900); format: functional, organism-based
[9] = fluconazole-exposed Candida albicans growth modulators – fluorescence, retest, confirmation (AID 2467); format: functional, cell-based
[10] = luciferase reporter signal suppression in cells – H4 neuroglioma cells, luminescence, dose response (AID 1990); format: functional, cell-based
[11] = NIH-3T3 fibroblast cytotoxicity, dose response, cytotoxicity control, cell-based, fluorescence, Alamar Blue, secondary assay (AID 2327); format: functional;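 further: NIH-3T3 mouse fibroblasts cultured with fluconazole at 8 µg/mL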
[12] = Luminescence Cell-Based Dose Response HTS to Identify Inhibitors of 5'UTR Stem-Loop Driven Prion Protein mRNA Translation in H4 Neuroglioblastoma Cells. [Related pubchem assays: 1827 (Project Summary), 1813 (Primary HTS)]; format: functional
[13] = alpha-synuclein stem-loop luciferase translation blockers – H4 neuroglioma cells, luminescence, confirmation (AID 1988); format: functional, cell-based
Paired box protein Pax-8 = Paired box protein Pax-8 (Homo sapiens, UniProt Q06710); assay: PAX8 transcriptional activity inhibition in RMG-I – RMG-I cells, luciferase, cherry-pick, dose response (AID 687027); format: functional, cell-based;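 further: luciferase reporter driven by Pax8 target thyroperoxidase promoter measured by SteadyGlo luminescence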

CCN(C(=O)COC(=O)c1ccc(C=O)cc1)c1c(N)n(Cc2ccccc2)c(=O)[nH]c1=O
IC50 [1]: > 122 µM (inactive) | IC50 [2]: > 122 µM (inactive)

NS(=O)(=O)c1ccc(N/N=C/c2ccc(O)cc2O)c([N+](=O)[O-])c1
IC50 [1]: > 123 µM (inactive) | IC50 [2]: > 123 µM (inactive)

COc1ccc(NC(C)C(=O)N/N=C/c2ccccc2OCc2cccc(Br)c2)cc1 (stereo unspecified)
EC50 [3]: > 79.4 µM (not active) | EC50 [4]: > 79.4 µM (inactive) | EC50 [5]: > 79.4 µM (not active) | IC50 [6]: > 69.5 µM (inactive) | IC50 [7]: > 69.5 µM (inactive)

CCOc1ccc(C(Nc2cccnc2)c2cc(Cl)c3cccnc3c2O)cc1 (stereo unspecified)
AC50 (INS1): 3.6 µM (active) | AC50 [8]: 2.68 µM (active) | EC50 [9]: 348 nM (active) | EC50 [10]: 12.1 µM (active) | EC50 [11]: 7.98 µM (inconclusive) | EC50 [12]: 13.7 µM (active) | IC50 [6]: 5.53 µM (active) | IC50 [7]: 9.11 µM (active) | EC50 [13]: > 120 µM (not active)

C=CCC[C@@H](Cc1ccc(F)cc1)C(=O)OC[C@@H](Cc1c[nH]c2ccccc12)NC(=O)[C@H](CC=C)CC(=O)N(CCO)Cc1ccccc1
AC50 (Paired box protein Pax-8): 10.9 µM (active) | IC50 [6]: 15.4 µM (inactive) | IC50 [7]: > 69.5 µM (inactive)
